Several values for one entry are separate records, joined by “and”; a condition that tells them apart may be missing. Identical values can stand only once.
Tested on: BDF1 mice, Adenocarcinoma 755 s.c., tumor weight T/C
Assay: NCI In Vivo Anticancer Drug Screen. Data for tumor model Adenocarcinoma 755 (subcutaneous) in B6D2F1 (BDF1) mice
Conditions: endpoint: mean tumor weight, higher = larger tumour
Method in brief: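 Transplantable tumor implanted; mice dosed with compound or vehicle; survival or tumor size recorded; ratio of treated to vehicle control reported.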

[1] = dose: 50.0 mg/kg/injection, schedule: Q01DX011 (ip), vehicle: carboxymethylcellulose (CMC)

SMILES: CC1(c2ccccc2)O[C@@H]2C[C@H]3[C@@H]4CCC5=CC(=O)C=C[C@]5(C)[C@@]4(F)[C@@H](O)C[C@]3(C)[C@]2(C(=O)CO)O1 (some centres undefined)
- T/C (dose: 2.75 mg/kg/injection, schedule: Q01DX011 (sc), vehicle: steriod suspending solution): 42 % of control and 45 % of control
- T/C (dose: 5.5 mg/kg/injection, schedule: Q01DX011 (sc), vehicle: steriod suspending solution): 14 % of control and 24 % of control
- T/C (dose: 11.0 mg/kg/injection, schedule: Q01DX011 (sc), vehicle: steriod suspending solution): 2 % of control and 24 % of control

SMILES: COCC1OC2OC3C(COC)OC(OC4C(COC)OC(OC5C(COC)OC(OC6C(COC)OC(OC7C(COC)OC(OC8C(COC)OC(OC1C(O)C2O)C(O)C8O)C(O)C7O)C(O)C6O)C(O)C5O)C(O)C4O)C(O)C3O (centres undefined) (tested in a mixture with another compound)
- T/C (dose: 3.12 mg/kg/injection, schedule: Q01DX011 (ip), vehicle: Klucel (hydroxypropylcellulose) (HPC)): 87 % of control
- T/C (dose: 6.25 mg/kg/injection, schedule: Q01DX011 (ip), vehicle: Klucel (hydroxypropylcellulose) (HPC)): 97 % of control
- T/C (dose: 12.5 mg/kg/injection, schedule: Q01DX011 (ip), vehicle: Klucel (hydroxypropylcellulose) (HPC)): 66 % of control
- T/C (dose: 25.0 mg/kg/injection, schedule: Q01DX011 (ip), vehicle: Klucel (hydroxypropylcellulose) (HPC)): 95 % of control
- T/C (dose: 50.0 mg/kg/injection, schedule: Q01DX011 (ip), vehicle: Klucel (hydroxypropylcellulose) (HPC)): 87 % of control
- T/C (dose: 100.0 mg/kg/injection, schedule: Q01DX011 (ip), vehicle: Klucel (hydroxypropylcellulose) (HPC)): 51 % of control
- T/C (dose: 200.0 mg/kg/injection, schedule: Q01DX011 (ip), vehicle: Klucel (hydroxypropylcellulose) (HPC)): 104 % of control
- T/C (dose: 400.0 mg/kg/injection, schedule: Q01DX011 (ip), vehicle: Klucel (hydroxypropylcellulose) (HPC)): 71 % of control

SMILES: O=C(CCBr)NCCCCCNC(=O)CCBr
- T/C (dose: 56.0 mg/kg/injection, schedule: Q01DX011 (ip), vehicle: methylcellulose (MC)): 86 % of control
- T/C (dose: 113.0 mg/kg/injection, schedule: Q01DX011 (ip), vehicle: methylcellulose (MC)): 71 % of control
- T/C (dose: 225.0 mg/kg/injection, schedule: Q01DX011 (ip), vehicle: methylcellulose (MC)): 78 % of control
- T/C (dose: 450.0 mg/kg/injection, schedule: Q01DX011 (ip), vehicle: methylcellulose (MC)): 47 % of control

SMILES: O=C(O)CC(O)(CC(=O)O)C(=O)O.[Ga]
- T/C (dose: 0.15 mg/kg/injection, schedule: Q01DX011 (ip), vehicle: carboxymethylcellulose (CMC)): 101 % of control
- T/C (dose: 0.3 mg/kg/injection, schedule: Q01DX011 (ip), vehicle: carboxymethylcellulose (CMC)): 67 % of control
- T/C (dose: 0.31 mg/kg/injection, schedule: Q01DX011 (ip), vehicle: carboxymethylcellulose (CMC)): 58 % of control
- T/C (dose: 0.6 mg/kg/injection, schedule: Q01DX011 (ip), vehicle: carboxymethylcellulose (CMC)): 72 % of control
- T/C (dose: 0.62 mg/kg/injection, schedule: Q01DX011 (ip), vehicle: carboxymethylcellulose (CMC)): 55 % of control
- T/C (dose: 1.2 mg/kg/injection, schedule: Q01DX011 (ip), vehicle: carboxymethylcellulose (CMC)): 42 % of control and 62 % of control
- T/C (dose: 1.25 mg/kg/injection, schedule: Q01DX011 (ip), vehicle: carboxymethylcellulose (CMC)): 25 % of control and 36 % of control
- T/C (dose: 20.0 mg/kg/injection, schedule: Q01DX011 (ip), vehicle: carboxymethylcellulose (CMC)): 5 % of control and 18 % of control
- T/C (dose: 40.0 mg/kg/injection, schedule: Q01DX011 (ip), vehicle: carboxymethylcellulose (CMC)): 5 % of control
- T/C (dose: 80.0 mg/kg/injection, schedule: Q01DX011 (ip), vehicle: carboxymethylcellulose (CMC)): 2 % of control

SMILES: CS(=O)(=O)OCC(=O)N1CCN(C(=O)COS(C)(=O)=O)CC1
- T/C (dose: 25.0 mg/kg/injection, schedule: Q01DX011 (ip), vehicle: methylcellulose (MC)): 63 % of control
- T/C (dose: 75.0 mg/kg/injection, schedule: Q01DX011 (ip), vehicle: methylcellulose (MC)): 67 % of control

SMILES: C=CCn1cnc2c(Cl)ncnc21
- T/C (dose: 25.0 mg/kg/injection, schedule: Q01DX011 (ip), vehicle: carboxymethylcellulose (CMC)): 10 % of control
- T/C [1]: 6 % of control

SMILES: c1nc([N+]23CCC(CC2)CC3)c2[nH]cnc2n1
- T/C (dose: 12.5 mg/kg/injection, schedule: Q01DX011 (ip), vehicle: saline): 101 % of control
- T/C (dose: 20.0 mg/kg/injection, schedule: Q01DX011 (ip), vehicle: saline): 98 % of control
- T/C (dose: 25.0 mg/kg/injection, schedule: Q01DX011 (ip), vehicle: saline): 56 % of control
- T/C (dose: 30.0 mg/kg/injection, schedule: Q01DX011 (ip), vehicle: saline): 50 % of control
- T/C (dose: 40.0 mg/kg/injection, schedule: Q01DX011 (ip), vehicle: saline): 41 % of control
- T/C (dose: 50.0 mg/kg/injection, schedule: Q01DX011 (ip), vehicle: saline): 19 % of control and 29 % of control

SMILES: CCCCN(C)N=Nc1ccc(OCC(=O)NN)cc1
- T/C [1]: 75 % of control

SMILES: O=C(O)c1cc2ccccc2c2cccc([N+](=O)[O-])c12
- T/C (dose: 1.75 mg/kg/injection, schedule: Q01DX011 (ip), vehicle: carboxymethylcellulose (CMC)): 63 % of control
- T/C (dose: 3.5 mg/kg/injection, schedule: Q01DX011 (ip), vehicle: carboxymethylcellulose (CMC)): 89 % of control
- T/C (dose: 7.0 mg/kg/injection, schedule: Q01DX011 (ip), vehicle: carboxymethylcellulose (CMC)): 59 % of control

SMILES: CC(Sc1nc(N)nc2nc[nH]c12)C(=O)O (centres undefined)
- T/C (dose: 37.5 mg/kg/injection, schedule: Q01DX011 (ip), vehicle: saline): 81 % of control
- T/C (dose: 75.0 mg/kg/injection, schedule: Q01DX011 (ip), vehicle: saline): 74 % of control
- T/C (dose: 150.0 mg/kg/injection, schedule: Q01DX011 (ip), vehicle: saline): 45 % of control
- T/C (dose: 300.0 mg/kg/injection, schedule: Q01DX011 (ip), vehicle: saline): 12 % of control

SMILES: CCN(CC)c1ccc(/C=C/c2ccnc3ccccc23)cc1
- T/C (dose: 2.5 mg/kg/injection, schedule: Q01DX011 (ip), vehicle: other): 86 % of control
- T/C (dose: 3.03 mg/kg/injection, schedule: Q01DX011 (ip), vehicle: carboxymethylcellulose (CMC)): 77 % of control
- T/C (dose: 3.23 mg/kg/injection, schedule: Q01DX011 (ip), vehicle: other): 84 % of control
- T/C (dose: 4.8 mg/kg/injection, schedule: Q01DX011 (ip), vehicle: carboxymethylcellulose (CMC)): 74 % of control
- T/C (dose: 5.0 mg/kg/injection, schedule: Q01DX011 (ip), vehicle: other): 91 % of control
- T/C (dose: 6.0 mg/kg/injection, schedule: Q01DX011 (ip), vehicle: carboxymethylcellulose (CMC)): 69 % of control
- T/C (dose: 6.05 mg/kg/injection, schedule: Q01DX011 (ip), vehicle: carboxymethylcellulose (CMC)): 119 % of control
- T/C (dose: 6.45 mg/kg/injection, schedule: Q01DX011 (ip), vehicle: other): 115 % of control
- T/C (dose: 8.0 mg/kg/injection, schedule: Q01DX011 (ip), vehicle: carboxymethylcellulose (CMC)): 55 % of control
- T/C (dose: 9.68 mg/kg/injection, schedule: Q01DX011 (ip), vehicle: carboxymethylcellulose (CMC)): 64 % of control
- T/C (dose: 12.0 mg/kg/injection, schedule: Q01DX011 (ip), vehicle: carboxymethylcellulose (CMC)): 46 % of control
- T/C (dose: 12.1 mg/kg/injection, schedule: Q01DX011 (ip), vehicle: carboxymethylcellulose (CMC)): 31 % of control
- T/C (dose: 12.9 mg/kg/injection, schedule: Q01DX011 (ip), vehicle: other): 55 % of control
- T/C (dose: 14.0 mg/kg/injection, schedule: Q01DX011 (ip), vehicle: carboxymethylcellulose (CMC)): 70 % of control
- T/C (dose: 15.0 mg/kg/injection, schedule: Q01DX011 (ip), vehicle: other): 25 % of control
- T/C (dose: 16.13 mg/kg/injection, schedule: Q01DX011 (ip), vehicle: carboxymethylcellulose (CMC)): 52 % of control

SMILES: CCCn1cnc2c(SCc3ccc(Br)cc3)nc(N)nc21
- T/C (dose: 7.8 mg/kg/injection, schedule: Q01DX011 (ip), vehicle: methylcellulose (MC)): 58 % of control
- T/C (dose: 15.6 mg/kg/injection, schedule: Q01DX011 (ip), vehicle: methylcellulose (MC)): 57 % of control
- T/C (dose: 31.25 mg/kg/injection, schedule: Q01DX011 (ip), vehicle: methylcellulose (MC)): 20 % of control
- T/C (dose: 62.5 mg/kg/injection, schedule: Q01DX011 (ip), vehicle: methylcellulose (MC)): 21 % of control and 23 % of control

SMILES: CN1CCN(CCCN2c3ccccc3Sc3ccc(C(F)(F)F)cc32)CC1
- T/C (dose: 22.0 mg/kg/injection, schedule: Q01DX011 (ip), vehicle: saline): 32 % of control

SMILES: C=CCn1cnc2c(=S)nc[nH]c21
- T/C (dose: 0.37 mg/kg/injection, schedule: Q01DX011 (ip), vehicle: saline): 49 % of control
- T/C (dose: 0.5 mg/kg/injection, schedule: Q01DX011 (ip), vehicle: saline): 82 % of control
- T/C (dose: 0.75 mg/kg/injection, schedule: Q01DX011 (ip), vehicle: saline): 72 % of control
- T/C (dose: 1.0 mg/kg/injection, schedule: Q01DX011 (ip), vehicle: saline): 48 % of control
- T/C (dose: 2.0 mg/kg/injection, schedule: Q01DX011 (ip), vehicle: alkali diluted with saline): 7 % of control
- T/C (dose: 2.25 mg/kg/injection, schedule: Q01DX011 (ip), vehicle: alkali diluted with saline): 3 % of control
- T/C (dose: 2.75 mg/kg/injection, schedule: Q01DX011 (ip), vehicle: alkali diluted with saline): 5 % of control
- T/C (dose: 3.0 mg/kg/injection, schedule: Q01DX011 (ip), vehicle: alkali diluted with saline): 9 % of control
- T/C (dose: 6.0 mg/kg/injection, schedule: Q01DX011 (ip), vehicle: alkali diluted with saline): 1 % of control
- T/C (dose: 12.5 mg/kg/injection, schedule: Q01DX011 (ip), vehicle: alkali diluted with saline): 2 % of control

Reference: PubChem BioAssay AID180 (DTP/NCI, 2004)
